What follows are compounds tested against His6-TEV-PDGFRβ (557-1016) (Homo sapiens (Human), UniProt P09619) (assay: PDGFRβ HTRF Assay). Details: read-out: PDGFR HTRF IC50.
Format: biochemical
Method in brief: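 HTRF KinEASE-TK readout (665/620 nm ratio) of TK-biotin substrate phosphorylation by His-tagged PDGFRβ kinase domain. Enzyme and inhibitor preincubated 30 min, then ATP/substrate added for 3 h at room temperature before 60 min EDTA quench/detection.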

His6-TEV-PDGFRβ (557-1016), sequence (P09619 557-1016): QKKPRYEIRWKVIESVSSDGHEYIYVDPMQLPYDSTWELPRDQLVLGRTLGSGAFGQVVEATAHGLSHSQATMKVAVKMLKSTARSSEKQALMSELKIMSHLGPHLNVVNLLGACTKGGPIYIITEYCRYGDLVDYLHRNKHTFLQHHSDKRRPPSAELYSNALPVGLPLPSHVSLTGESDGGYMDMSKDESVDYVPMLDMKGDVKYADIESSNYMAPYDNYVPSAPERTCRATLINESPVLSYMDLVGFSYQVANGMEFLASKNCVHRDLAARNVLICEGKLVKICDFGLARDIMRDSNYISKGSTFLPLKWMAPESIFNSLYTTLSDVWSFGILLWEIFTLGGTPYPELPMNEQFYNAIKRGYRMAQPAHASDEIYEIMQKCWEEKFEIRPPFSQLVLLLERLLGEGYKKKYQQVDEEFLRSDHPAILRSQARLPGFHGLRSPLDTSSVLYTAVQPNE

Row | Compound | IC50 [nM]
1 | CC[C@@H]1COCCN1CC(=O)Nc1cnc(C)c(NC(=O)c2cnn3cc(-c4cnn(C)c4)sc23)c1 [Example 69, (R)—N-(5-(2-(3-ethylmorpholino)acetamido)-2-methylpyridin-3-yl)-2-(1-methyl-1H-pyrazol-4-yl)pyrazolo[5,1-b]thiazole-7-carboxamide] | 0.5
2 | CC[C@H]1COCCN1CC(=O)Nc1cnc(C)c(NC(=O)c2cnn3cc(-c4cnn(C)c4)sc23)c1 [Example 70, (S)—N-(5-(2-(3-ethylmorpholino)acetamido)-2-methylpyridin-3-yl)-2-(1-methyl-1H-pyrazol-4-yl)pyrazolo[5,1-b]thiazole-7-carboxamide] | 0.2
3 | Cc1ncc(NC(=O)CN2[C@H](C)COC[C@@H]2C)cc1NC(=O)c1cnn2cc(-c3cnn(C)c3)sc12 [Example 71, N-(5-(2-((3S,5R)-3,5-dimethylmorpholino)acetamido)-2-methylpyridin-3-yl)-2-(1-methyl-1H-pyrazol-4-yl)pyrazolo[5,1-b]thiazole-7-carboxamide] | 2.9
4 | Cc1ncc(NC(=O)CN2CCN(C)C(=O)C2)cc1NC(=O)c1cnn2cc(-c3cnn(C)c3)sc12 [Example 72, 2-(1-methyl-1H-pyrazol-4-yl)-N-(2-methyl-5-(2-(4-methyl-3-oxopiperazin-1-yl)acetamido)pyridin-3-yl)pyrazolo[5,1-b]thiazole-7-carboxamide] | 5.7
5 | Cc1ncc(NC(=O)CN2CCC(F)(F)C2)cc1NC(=O)c1cnn2cc(-c3cnn(C)c3)sc12 [Example 73, N-(5-(2-(3,3-difluoropyrrolidin-1-yl)acetamido)-2-methylpyridin-3-yl)-2-(1-methyl-1H-pyrazol-4-yl)pyrazolo[5,1-b]thiazole-7-carboxamide] | 0.3
6 | Cc1ncc(NC(=O)CN2CCOC[C@@H]2C)cc1NC(=O)c1cnn2cc(-c3cnn(C)c3)sc12 [Example 74, (S)-2-(1-methyl-1H-pyrazol-4-yl)-N-(2-methyl-5-(2-(3-methylmorpholino)acetamido)pyridin-3-yl)pyrazolo[5,1-b]thiazole-7-carboxamide] | 1
7 | Cc1ncc(NC(=O)CN2CCn3ccnc3C2)cc1NC(=O)c1cnn2cc(-c3cnn(C)c3)sc12 [Example 75, N-(5-(2-(5,6-dihydroimidazo[1,2-a]pyrazin-7 (8H)-yl)acetamido)-2-methylpyridin-3-yl)-2-(1-methyl-1H-pyrazol-4-yl)pyrazolo[5,1-b]thiazole-7-carboxamide] | 4.1
8 | Cc1ncc(NC(=O)CN2Cc3ncsc3C2)cc1NC(=O)c1cnn2cc(-c3cnn(C)c3)sc12 [Example 76, N-(5-(2-(4H-pyrrolo[3,4-d]thiazol-5 (6H)-yl)acetamido)-2-methylpyridin-3-yl)-2-(1-methyl-1H-pyrazol-4-yl)pyrazolo[5,1-b]thiazole-7-carboxamide] | 0.9
9 | Cc1ncc(NC(=O)CN2Cc3ccncc3C2)cc1NC(=O)c1cnn2cc(-c3cnn(C)c3)sc12 [Example 77, N-(5-(2-(1H-pyrrolo[3,4-c]pyridin-2 (3H)-yl)acetamido)-2-methylpyridin-3-yl)-2-(1-methyl-1H-pyrazol-4-yl)pyrazolo[5,1-b]thiazole-7-carboxamide] | 1.8
10 | Cc1ncc(NC(=O)CN2CCOCC23CCC3)cc1NC(=O)c1cnn2cc(-c3cnn(C)c3)sc12 [Example 78, N-(5-(2-(8-oxa-5-azaspiro[3.5]nonan-5-yl)acetamido)-2-methylpyridin-3-yl)-2-(1-methyl-1H-pyrazol-4-yl)pyrazolo[5,1-b]thiazole-7-carboxamide] | 0.9
11 | COCC1CCCN1CC(=O)Nc1cnc(C)c(NC(=O)c2cnn3cc(-c4cnn(C)c4)sc23)c1 (stereo not drawn) [Example 79, N-(5-(2-(2-(methoxymethyl)pyrrolidin-1-yl)acetamido)-2-methylpyridin-3-yl)-2-(1-methyl-1H-pyrazol-4-yl)pyrazolo[5,1-b]thiazole-7-carboxamide] | 0.8
12 | Cc1ncc(NC(=O)CN2CCCOCC2)cc1NC(=O)c1cnn2cc(-c3cnn(C)c3)sc12 [Example 80, N-(5-(2-(1,4-oxazepan-4-yl)acetamido)-2-methylpyridin-3-yl)-2-(1-methyl-1H-pyrazol-4-yl)pyrazolo[5,1-b]thiazole-7-carboxamide] | 1.4
13 | Cc1ncc(NC(=O)CN2CCC3(CCO3)CC2)cc1NC(=O)c1cnn2cc(-c3cnn(C)c3)sc12 [Example 81, N-(5-(2-(1-oxa-7-azaspiro[3.5]nonan-7-yl)acetamido)-2-methylpyridin-3-yl)-2-(1-methyl-1H-pyrazol-4-yl)pyrazolo[5,1-b]thiazole-7-carboxamide] | 2.8
14 | Cc1ncc(NC(=O)CN2CCC2(C)C)cc1NC(=O)c1cnn2cc(-c3cnn(C)c3)sc12 [Example 82, N-(5-(2-(2,2-dimethylazetidin-1-yl)acetamido)-2-methylpyridin-3-yl)-2-(1-methyl-1H-pyrazol-4-yl)pyrazolo[5,1-b]thiazole-7-carboxamide] | 1.6
15 | COC1CCN(CC(=O)Nc2cnc(C)c(NC(=O)c3cnn4cc(-c5cnn(C)c5)sc34)c2)CC1 [Example 83, N-(5-(2-(4-methoxypiperidin-1-yl)acetamido)-2-methylpyridin-3-yl)-2-(1-methyl-1H-pyrazol-4-yl)pyrazolo[5,1-b]thiazole-7-carboxamide] | 2.3
16 | Cc1ncc(NC(=O)CN2CCC[C@@H]2C)cc1NC(=O)c1cnn2cc(-c3cnn(CCO)c3)sc12 [Example 84, (S)-2-(1-(2-hydroxyethyl)-1H-pyrazol-4-yl)-N-(2-methyl-5-(2-(2-methylpyrrolidin-1-yl)acetamido)pyridin-3-yl)pyrazolo[5,1-b]thiazole-7-carboxamide] | 0.9
17 | Cc1ncc(NC(=O)CN2CCCCC23CC3)cc1NC(=O)c1cnn2cc(-c3cnn(CCO)c3)sc12 [Example 86, N-(5-(2-(4-azaspiro[2.5]octan-4-yl)acetamido)-2-methylpyridin-3-yl)-2-(1-(2-hydroxyethyl)-1H-pyrazol-4-yl)pyrazolo[5,1-b]thiazole-7-carboxamide] | 1.3
18 | Cc1ncc(NC(=O)CN2CCCC23CC3)cc1NC(=O)c1cnn2cc(-c3cnn(CCO)c3)sc12 [Example 87, N-(5-(2-(4-azaspiro[2.4]heptan-4-yl)acetamido)-2-methylpyridin-3-yl)-2-(1-(2-hydroxyethyl)-1H-pyrazol-4-yl)pyrazolo[5,1-b]thiazole-7-carboxamide] | 0.4
19 | Cc1ncc(NC(=O)CCN2CCCC2(C)C)cc1NC(=O)c1cnn2cc(-c3cnn(CCO)c3)sc12 [Example 88, N-(5-(3-(2,2-dimethylpyrrolidin-1-yl)propanamido)-2-methylpyridin-3-yl)-2-(1-(2-hydroxyethyl)-1H-pyrazol-4-yl)pyrazolo[5,1-b]thiazole-7-carboxamide] | 0.4
20 | COCCn1cc(-c2cn3ncc(C(=O)Nc4cc(NC(=O)CCN5CCC(C)(C)C5)cnc4C)c3s2)cn1 [Example 89, N-(5-(3-(3,3-dimethylpyrrolidin-1-yl)propanamido)-2-methylpyridin-3-yl)-2-(1-(2-methoxyethyl)-1H-pyrazol-4-yl)pyrazolo[5,1-b]thiazole-7-carboxamide] | 0.6
21 | COCCn1cc(-c2cn3ncc(C(=O)Nc4cc(NC(=O)CCN5CCC6(CCC6)C5)cnc4C)c3s2)cn1 [Example 90, N-(5-(3-(6-azaspiro[3.4]octan-6-yl)propanamido)-2-methylpyridin-3-yl)-2-(1-(2-methoxyethyl)-1H-pyrazol-4-yl)pyrazolo[5,1-b]thiazole-7-carboxamide] | 0.5
22 | COCCn1cc(-c2cn3ncc(C(=O)Nc4cc(NC(=O)CCN5CCC6(CC6)C5)cnc4C)c3s2)cn1 [Example 91, N-(5-(3-(5-azaspiro[2.4]heptan-5-yl)propanamido)-2-methylpyridin-3-yl)-2-(1-(2-methoxyethyl)-1H-pyrazol-4-yl)pyrazolo[5,1-b]thiazole-7-carboxamide] | 0.5
23 | COCCn1cc(-c2cn3ncc(C(=O)Nc4cc(NC(=O)CCN5C[C@@H]6CC[C@H]5C6)cnc4C)c3s2)cn1 [Example 92, N-(5-(3-((1S,4R)-2-azabicyclo[2.2.1]heptan-2-yl)propanamido)-2-methylpyridin-3-yl)-2-(1-(2-methoxyethyl)-1H-pyrazol-4-yl)pyrazolo[5,1-b]thiazole-7-carboxamide] | 0.5
24 | COCCn1cc(-c2cn3ncc(C(=O)Nc4cc(NC(=O)CCN5CC(C)(C)C5)cnc4C)c3s2)cn1 [Example 93, N-(5-(3-(3,3-dimethylazetidin-1-yl)propanamido)-2-methylpyridin-3-yl)-2-(1-(2-methoxyethyl)-1H-pyrazol-4-yl)pyrazolo[5,1-b]thiazole-7-carboxamide] | 0.9
25 | COCCn1cc(-c2cn3ncc(C(=O)Nc4cc(NC(=O)CCN5C[C@H]6CC[C@@H]5C6)cnc4C)c3s2)cn1 [Example 94, N-(5-(3-((1R,4S)-2-azabicyclo[2.2.1]heptan-2-yl)propanamido)-2-methylpyridin-3-yl)-2-(1-(2-methoxyethyl)-1H-pyrazol-4-yl)pyrazolo[5,1-b]thiazole-7-carboxamide] | 0.5
26 | Cc1ncc(C(=O)NCCN2CCCC2(C)C)cc1NC(=O)c1cnn2cc(-c3ccnc(N4CCOCC4)c3)sc12 [Example 483, N-(5-((2-(2,2-dimethylpyrrolidin-1-yl)ethyl)carbamoyl)-2-methylpyridin-3-yl)-2-(2-morpholinopyridin-4-yl)pyrazolo[5,1-b]thiazole-7-carboxamide] | 0.3
27 | Cc1ncc(C(=O)NCCN2CC3CCC2CC3)cc1NC(=O)c1cnn2cc(-c3ccnc(N4CCOCC4)c3)sc12 [Example 484, N-(5-((2-(2-azabicyclo[2.2.2]octan-2-yl)ethyl)carbamoyl)-2-methylpyridin-3-yl)-2-(2-morpholinopyridin-4-yl)pyrazolo[5,1-b]thiazole-7-carboxamide] | 0.2

— patent publication US20240109917A1 (ACTELION PHARMACEUTICALS LTD, priority 2020, published 2024)
